# Test results as given in US20240343722A1 (VIFOR (INTERNATIONAL) AG, priority 2021, published 2024).
# Target: T1, ferroportin (Fpn) (Mus musculus, UniProt Q9JHI9)
# T1 construct: endogenous in cells; host or cells: J774 mouse macrophage cell line, induced with Fe(III)NTA
# T1 sequence (Q9JHI9 1-570): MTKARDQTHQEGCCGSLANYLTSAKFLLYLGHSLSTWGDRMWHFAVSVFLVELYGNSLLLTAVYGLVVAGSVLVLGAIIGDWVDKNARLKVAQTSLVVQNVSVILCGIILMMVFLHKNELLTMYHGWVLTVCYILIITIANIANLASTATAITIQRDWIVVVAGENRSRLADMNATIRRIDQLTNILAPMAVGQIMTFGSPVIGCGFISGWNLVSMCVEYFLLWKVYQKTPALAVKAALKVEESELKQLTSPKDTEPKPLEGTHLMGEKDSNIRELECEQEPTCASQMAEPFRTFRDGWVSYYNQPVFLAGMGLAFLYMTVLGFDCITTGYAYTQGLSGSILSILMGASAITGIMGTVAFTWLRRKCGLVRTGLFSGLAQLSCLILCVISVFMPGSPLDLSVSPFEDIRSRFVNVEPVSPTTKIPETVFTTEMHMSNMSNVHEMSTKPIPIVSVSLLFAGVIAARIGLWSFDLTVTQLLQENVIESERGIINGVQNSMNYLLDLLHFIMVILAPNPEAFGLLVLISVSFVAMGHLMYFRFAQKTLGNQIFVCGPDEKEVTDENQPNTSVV
# Test: Hepcidin Internalization Assay (J774)
# Format: cell-based
# Settings: Average (AVE) IC50 of multiple measurements; inhibition of TMR-hepcidin (25 nM) internalization into J774 cells
# Text: This cellular assay allows quantification of the binding of hepcidin to ferroportin (Fpn) through microscopic detection of internalization of a fluorescently labeled hepcidin into J774 cells. […] Binding of hepcidin to Fpn triggers internalization and degradation of both hepcidin and Fpn. […] Therefore, microscopic detection of cell-associated TMR fluorescence is a measure of hepcidin binding to Fpn and internalization of hepcidin and Fpn. If TMR-hepcidin is prevented from binding to Fpn, cellular TMR fluorescence remains low (Durrenberger et al, 2013). The effect of small molecular weight Fpn inhibitor compounds in this assay was evaluated in vitro as described below. […] After removal of the paraformaldehyde solution, cells were washed 3 times with PBS leaving 100 μl per well and the plates were sealed with foil plate seal. TMR (530-550 nm excitation/575-625 nm emission/400 ms exposure time) and Hoechst 33342 (360-370 nm excitation/420-460 nm emission /10 ms exposure time) fluorescence images were acquired using a […] imager (Olympus) with a 20× high NA objective. […] The acquired image data was analysed with the […] analysis software. […] IC50 values were calculated with the Sum(Mean) raw data using “log(inhibitor) vs. response” curve fitting of Prism 5 software (GraphPad Software Inc., version 5.02). For each data set the fit of the “log(inhibitor) vs. response (three parameters)” model was compared to the fit of the “log(inhibitor) vs. response - Variable slope (four parameters)” model and the IC50 data of the preferred model was used.
row,SMILES,IC50
1,"O=C(NCc1ncccc1F)c1coc(CCNCCc2nc3ccccc3n2CCc2ccccn2)n1 [Example 35, N-((3-fluoropyridin-2-yl)methyl)-2-(2-((2-(1-(2-(pyridin-2-yl)ethyl)-1H-benzo[d]imidazol-2-yl)ethyl)amino)ethyl)oxazole-4-carboxamide]",2 nM
2,"COc1cccc(-n2c(CCNCCc3nc(C(=O)NCc4ncccc4F)co3)nc3ccccc32)c1 [Example 63, N-((3-fluoropyridin-2-yl)methyl)-2-(2-((2-(1-(3-methoxyphenyl)-1H-benzo[d]imidazol-2-yl)ethyl)amino)ethyl)oxazole-4-carboxamide]",0.8 nM
3,"CN(C)CCn1c(CCNCCc2nc(C(=O)NCc3ncccc3F)co2)nc2cc3c(cc21)OCCO3 [Example 77, 2-(2-((2-(1-(2-(dimethylamino)ethyl)-6,7-dihydro-1 H-[1,4]dioxino[2′,3′:4,5]benzo[1,2-d]imidazol-2-yl)ethyl)amino)ethyl)-N-((3-fluoropyridin-2-yl)methyl)oxazole-4-carboxamide]",5.1 nM
4,"COc1cccc(-n2c(CCNCCc3nc(C(=O)NCc4ncccc4F)co3)nc3cc(OC)c(OC)cc32)c1 [Example 72, 2-(2-((2-(5,6-dimethoxy-1-(3-methoxyphenyl)-1H-benzo[d]imidazol-2-yl)ethyl)amino)ethyl)-N-((3-fluoropyridin-2-yl)methyl)oxazole-4-carboxamide]",35 nM
5,O=C(NCc1ncccc1F)c1coc(CCNCCc2nc3cc4c(cc3n2CC2CC2)OCCO4)n1 [Example 65],1.2 nM
6,"Cn1ccnc1CCn1c(CCNCCc2nc(C(=O)NCc3ncccc3F)co2)nc2ccccc21 [Example 34, N-((3-fluoropyridin-2-yl)methyl)-2-(2-((2-(1-(2-(1-methyl-1 H-imidazol-2-yl)ethyl)-1 H-benzo[d]imidazol-2-yl)ethyl)amino)ethyl)oxazole-4-carboxamide]",7.4 nM
7,"O=C(NCc1ncccc1F)c1coc(CCNCCc2nc3cc4c(cc3n2-c2ccccc2)OCO4)n1 [Example 82, N-((3-fluoropyridin-2-yl)methyl)-2-(2-((2-(5-phenyl-5H-[1,3]dioxolo[4′,5′:4,5]benzo[1,2-d]imidazol-6-yl)ethyl)amino)ethyl)oxazole-4-carboxamide]",2 nM
8,"O=C(NCc1ncccc1F)c1coc(CCNCCc2nc3ccccc3n2-c2cccc(Cl)c2)n1 [Example 64, 2-(2-((2-(1-(3-chlorophenyl)-1 H-benzo[d]imidazol-2-yl)ethyl)amino)ethyl)-N-((3-fluoropyridin-2-yl)methyl)oxazole-4-carboxamide]",1.3 nM
9,"O=C(NCc1ncccc1F)c1coc(CCNCCc2nc3ccccc3n2CC2CCCCC2)n1 [Example 51, 2-(2-((2-(1-(cyclohexylmethyl)-1H-benzo[d]imidazol-2-yl)ethyl)amino)ethyl)-N-((3-fluoropyridin-2-yl)methyl)oxazole-4-carboxamide]",0.8 nM
10,"O=C(NCc1ncccc1F)c1coc(CCNCCc2nc3ccccc3n2Cc2ccncn2)n1 [Example 62, N-((3-fluoropyridin-2-yl)methyl)-2-(2-((2-(1-(pyrimidin-4-ylmethyl)-1 H-benzo[d]imidazol-2-yl)ethyl)amino)ethyl)oxazole-4-carboxamide]",8.5 nM
11,"CCCCn1c(CCNCCc2nc(C(=O)NCc3ncccc3F)co2)nc2cc(OC)c(OC)cc21 [Example 87, 2-(2-((2-(1-butyl-5,6-dimethoxy-1 H-benzo[d]imidazol-2-yl)ethyl)amino)ethyl)-N-((3-fluoropyridin-2-yl)methyl)oxazole-4-carboxamide]",17 nM
12,"COc1cccnc1CNC(=O)c1coc(CCNCCc2nc3cc4c(cc3n2CCc2ncco2)OCCO4)n1 [Example 95, N-((3-methoxypyridin-2-yl)methyl)-2-(2-((2-(1-(2-(oxazol-2-yl)ethyl)-6,7-dihydro-1 H-[1,4]dioxino[2′,3′:4,5]benzo[1,2-d]imidazol-2-yl)ethyl)amino)ethyl)oxazole-4-carboxamide]",26 nM
